Measurements published in patent publication US9663457B2, “Carbamoyl hydrazine derivatives as formyl peptide modulators” (Allergan, Inc., priority 2014, dated 2017).
pEC50: −log10 of the molar value.

Molecular target: T1, FPR2 (Homo sapiens, UniProt P25090)
T1 construct: expressed in transfected cells; host or cells: HEK-Gα16, CHO-Gα16 and HEK-Gqi5 cells stably expressing FPR2
T1 sequence (P25090 1-351): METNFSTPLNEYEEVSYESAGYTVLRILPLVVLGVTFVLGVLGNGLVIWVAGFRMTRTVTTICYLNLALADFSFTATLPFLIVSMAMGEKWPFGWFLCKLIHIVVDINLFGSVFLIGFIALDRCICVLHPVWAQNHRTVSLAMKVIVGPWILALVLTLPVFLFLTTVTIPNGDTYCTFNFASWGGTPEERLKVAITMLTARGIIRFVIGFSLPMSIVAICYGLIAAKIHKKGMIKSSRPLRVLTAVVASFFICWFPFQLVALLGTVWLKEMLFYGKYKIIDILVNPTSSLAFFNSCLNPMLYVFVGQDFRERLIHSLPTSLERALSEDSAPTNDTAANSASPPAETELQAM
Test: FPR2 compound-induced calcium activity assay on FLIPR Tetra
Type: cell-based
Settings: HEK-Gα16, CHO-Gα16 or HEK-Gqi5 cells stably expressing FPR2, tested at 0.61 to 10,000 nM; for Emax: read-out: % Efficacy
Protocol: Compounds of Formula I modulate FPR activity. […] HEK-Gα16 and CHO-Gα16 cells stably expressing FPR2 were cultured in (F12, 10% FBS, 1% PSA, 400 μg/ml geneticin and 50 μg/ml hygromycin) and HEK-Gqi5 cells stable expressing FPR2 were cultured in (DMEM high glucose, 10% FBS, 1% PSA, 400 μg/ml geneticin and 50 μg/ml hygromycin). In general, the day before the experiment, 18,000 cells/well were plated in a 384-well clear bottom poly-D-lysine coated plate. The following day, the screening compound-induced calcium activity was assayed on the FLIPR^Tetra. The drug plates were prepared in 384-well microplates using the EP3 and the MuItiPROBE robotic liquid handling systems. Compounds were tested at concentrations ranging from 0.61 to 10,000 nM. Results are expressed as EC50 (nM) and efficacy values.

Structure (SMILES)	pEC50	Emax
CC(C)(C(=O)O)C(=O)NNC(=O)Nc1ccc(Br)cc1 [Compound 2, 3-{2-[(4-Bromophenyl)carbamoyl]hydrazinyl}-2,2-dimethyl-3-oxopropanoic Acid]	5.28	73%
CC(C)(CC(=O)NNC(=O)Nc1ccc(Br)cc1)C(=O)O [Compound 3, 4-{2-[(4-bromophenyl)carbamoyl]hydrazinyl}-2,2-dimethyl-4-oxobutanoic acid]	6.22	86%
CCOC(=O)CC(=O)NNC(=O)Nc1ccc(Br)cc1 [Compound 1, Ethyl 3-{2[(4-bromophenyl)carbamoyl]hydrazinyl}-3-oxopropanoate]	6.12	100%
CCOC(=O)CCC(=O)N(CC(C)C)NC(=O)Nc1ccc(Br)cc1F [Compound 9, ethyl 4-{2-[(4-bromo-2-fluorophenyl)carbamoyl]-1-(2-methylpropyl)hydrazinyl}-4-oxobutanoate]	5.44	76%
CCCN(NC(=O)Nc1ccc(Br)cc1F)C(=O)CCC(=O)OCC [Compound 16, ethyl 4-{2-[(4-bromo-2-fluorophenyl)carbamoyl]-1-propylhydrazinyl}-4-oxobutanoate]	7.47	100%
CCCC(CCC)(CC(=O)NNC(=O)Nc1ccc(Br)cc1)C(=O)OC [Compound 4, methyl 2-(2-{2-[(4-bromophenyl)carbamoyl]hydrazinyl}-2-oxoethyl)-2-propylpentanoate]	7.34	89%
CCCC(CCC)(CC(=O)NNC(=O)Nc1ccc(Br)cc1)C(=O)O [Compound 5, 2-[2-(2-{[(4-Bromophenyl)amino]carbonyl}hydrazino)-2-oxoethyl]-2-propylpentanoic Acid]	6.67	87%
CCC(CC)(CC(=O)NNC(=O)Nc1ccc(Br)cc1)C(=O)O [Compound 6, 4-{2-[(4-bromophenyl)carbamoyl]hydrazinyl}-2,2-diethyl-4-oxobutanoic acid]	6.38	73%

The next lines start with the values.

pEC50	Emax	Structure (SMILES)
7.47	100%	CCCCN(NC(=O)Nc1ccc(Br)cc1)C(=O)CCC(=O)OCC [Compound 15, ethyl 4-{2-[(4-bromophenyl)carbamoyl]-1-butylhydrazinyl}-4-oxobutanoate]
7.68	98%	CC(C)CN(NC(=O)Nc1ccc(C(F)(F)F)cc1)C(=O)CCC(=O)O [Compound 12, 4-[1-(2-methylpropyl)-2-{[4-(trifluoromethyl)phenyl]carbamoyl}hydrazinyl]-4-oxobutanoic acid]
7.51	100%	CCOC(=O)CCC(=O)N(CC(C)C)NC(=O)Nc1ccc(Br)cc1 [Compound 7, Ethyl 4-{2-[(4-Bromophenyl)carbamoyl]-1-(2-methylpropyl)hydrazinyl}-4-oxobutanoate]
7.24	94%	CCOC(=O)CCC(=O)N(CC(C)C)NC(=O)Nc1ccc(C(F)(F)F)cc1 [Compound 11, ethyl 4-[1-(2-methylpropyl) 2{[4-(trifluoromethyl)phenyl]carbamoyl}hydrazinyl]-4-oxobutanoate]
6.47	99%	CC(C)CN(NC(=O)Nc1ccc(Br)cc1F)C(=O)CCC(=O)O [Compound 10, 4-{2-[(4-bromo-2-fluorophenyl)carbamoyl]-1-(2-methylpropyl)hydrazinyl}-4-oxobutanoic acid]
7.55	97%	CCCN(NC(=O)Nc1ccc(C(F)(F)F)cc1)C(=O)CCC(=O)O [Compound 14, 4-oxo-4-(1-propyl-2-{[4-(trifluoromethyl)phenyl]carbamoyl}hydrazinyl)butanoic acid]
7.92	100%	CC(C)CN(NC(=O)Nc1ccc(Br)cc1)C(=O)CCC(=O)O [Compound 8, 4-{2-[(4-Bromophenyl)carbamoyl]-1-(2-methylpropyl)hydrazinyl}-4-oxobutanoic Acid]
7.46	98%	CCCN(NC(=O)Nc1ccc(C(F)(F)F)cc1)C(=O)CCC(=O)OCC [Compound 13, ethyl 4-oxo-4-(1-propyl-2-{[4-(trifluoromethyl)phenyl]carbamoyl}hydrazinyl)butanoate]
7.54	100%	CCCN(NC(=O)Nc1ccc(Br)cc1F)C(=O)CCC(=O)O [Compound 17, 4-{2-[(4-bromo-2-fluorophenyl)carbamoyl]-1-propylhydrazinyl}-4-oxobutanoic acid]
